# Results: PMC12472302, “Discovery of a Promising Hydroxyamino-Piperidine HDAC6 Inhibitor via Integrated Virtual Screening and Experimental Validation in Multiple Myeloma” (Pharmaceuticals, 2025)
# Read-outs that look alike come from different tables or passages of the source.
# Legend:
# [1] = test system: HDAC6; conditions: cited from earlier work
# [2] = test system: HDAC6; conditions: cited from earlier work; remark: listed apart in the source
# [3] = test system: acetylated α-tubulin; experiment: Western blot of acetylated α-tubulin in MM cell lines; type: cell-based, human; conditions: AMO and AMO-BZB
# Protocol: (§1) Total protein extracts were prepared using NP-40 Cell Lysis Buffer supplemented with Halt™ Protease Inhibitor Cocktail (Thermo Fisher Scientific, Waltham, MA, USA), as reported.
# (§2) Protein samples (30 µg per lane) were resolved on 10% SDS-PAGE gels and subsequently transferred onto nitrocellulose membranes using the Trans-Blot Turbo Transfer System (Bio-Rad Laboratories, Hercules, CA, USA). Membranes were then blocked and incubated with the following primary antibodies: acetylated-α Tubulin (#sc-23950; Santa Cruz Biotechnology, Dallas, TX, USA), acetylated-histone H4 (#sc-34263; Santa Cruz Biotechnology) or histone H4 (#AB5823; abcam). GAPDH (MA5-15738; Thermo Fisher Scientific, Waltham, MA, USA) was used as loading control. Protein bands were visualized using the Clarity Western ECL Substrate (Bio-Rad Laboratories, Hercules, CA, USA), and chemiluminescence signals were quantified using the UVITEC Imaging System (Cleaver Scientific, Warwickshire, UK).
# [4] = test system: histone H4 acetylation; experiment: Western blot of acetylated histone H4 in AMO cells; type: cell-based, human; conditions: 72 h
# Protocol: as §1, §2
# [5] = biological target: T1, HDAC6 human recombinant enzyme (Homo sapiens, UniProt Q9UBN7); experiment: Fluorogenic HDAC6 inhibition assay (BPS Bioscience kit); type: biochemical; conditions: mean ± SD, three independent experiments
# T1 sequence (Q9UBN7 1-1215): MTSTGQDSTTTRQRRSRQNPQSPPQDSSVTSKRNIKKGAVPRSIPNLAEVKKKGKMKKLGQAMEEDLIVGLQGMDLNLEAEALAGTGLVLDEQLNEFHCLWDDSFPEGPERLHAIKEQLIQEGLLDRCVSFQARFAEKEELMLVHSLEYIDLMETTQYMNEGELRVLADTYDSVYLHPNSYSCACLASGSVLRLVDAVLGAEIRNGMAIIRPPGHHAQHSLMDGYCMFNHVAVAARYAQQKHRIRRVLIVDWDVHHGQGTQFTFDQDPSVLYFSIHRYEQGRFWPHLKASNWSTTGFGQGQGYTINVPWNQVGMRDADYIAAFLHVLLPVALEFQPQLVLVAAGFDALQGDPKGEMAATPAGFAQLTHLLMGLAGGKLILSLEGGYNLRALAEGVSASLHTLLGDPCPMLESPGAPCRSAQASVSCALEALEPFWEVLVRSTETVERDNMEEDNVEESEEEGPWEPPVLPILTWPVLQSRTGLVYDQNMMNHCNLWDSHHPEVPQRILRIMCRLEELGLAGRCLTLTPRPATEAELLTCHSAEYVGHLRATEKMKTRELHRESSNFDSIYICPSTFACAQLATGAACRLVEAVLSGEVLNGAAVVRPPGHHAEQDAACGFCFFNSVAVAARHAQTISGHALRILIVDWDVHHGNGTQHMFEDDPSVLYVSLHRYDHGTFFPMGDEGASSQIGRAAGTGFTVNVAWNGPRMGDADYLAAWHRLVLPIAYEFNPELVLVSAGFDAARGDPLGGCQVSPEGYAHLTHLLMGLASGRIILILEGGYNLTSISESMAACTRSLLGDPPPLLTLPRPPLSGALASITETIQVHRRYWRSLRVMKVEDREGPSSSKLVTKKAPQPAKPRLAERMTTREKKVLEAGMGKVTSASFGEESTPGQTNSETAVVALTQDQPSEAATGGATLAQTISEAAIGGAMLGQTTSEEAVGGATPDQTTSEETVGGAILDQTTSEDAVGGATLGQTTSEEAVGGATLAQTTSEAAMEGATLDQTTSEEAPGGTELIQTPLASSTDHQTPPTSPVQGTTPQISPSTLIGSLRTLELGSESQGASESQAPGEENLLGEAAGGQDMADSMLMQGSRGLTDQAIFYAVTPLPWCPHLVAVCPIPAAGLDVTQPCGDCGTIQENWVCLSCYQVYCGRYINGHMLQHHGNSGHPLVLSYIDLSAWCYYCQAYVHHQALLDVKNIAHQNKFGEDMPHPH
# [6] = test system: H929-BZB cells; experiment: CellTiter-Glo cell viability, H929-BZB; type: cell-based; conditions: Homo sapiens; H929-BZB (bortezomib-resistant), 72 h, mean ± SD
# Protocol: (§3) The MM cell lines used in this study were: AMO, AMO-BZB, NCI-H929 and NCI-H929-BZB. AMO and AMO-BZB cells were provided by Dr. C. Driessen (University of Tubingen, Tübingen, Germany). The NCI-H929 cell line was purchased from DSMZ (Braunschweig, Germany). Bortezomib (BZB)-resistant NCI-H929 cells were selected by incubation with increasing concentrations of the drug. Human MM cell lines were cultured in RPMI-1640 medium (Corning, Turin, Italy) supplemented with 10% of heat-inactivated fetal bovine serum (FBS) (Gibco®, Life Technologies, Carlsbad, CA, USA), 100 U/mL of Penicillin and 100 µg/mL of Streptomycin (P/S) (Gibco®, Life Technologies, Carlsbad, CA, USA) and incubated at 37 °C in a 5% CO2 atmosphere. Peripheral blood mononuclear cells (PBMCs) were isolated by Ficoll-hypaque (Lonza Group, Basel, Switzerland) from healthy donors, following informed consent and Institutional Review Board (University of Catanzaro, Catanzaro, Italy) approval (institutional approval: n.266/2021). […]
# (§4) Cell viability was assessed using the CellTiter-Glo (CTG) assay kit (Promega, Madison, WI, USA), as reported. […] Luminescence was measured using the GloMax-Multi Detection System (Promega, Madison, WI, USA).
# [7] = test system: AMO cells; experiment: CellTiter-Glo cell viability, AMO; type: cell-based; conditions: Homo sapiens, 72 h, mean ± SD
# Protocol: as §3, §4
# [8] = test system: AMO-BZB cells; experiment: CellTiter-Glo cell viability, AMO-BZB; type: cell-based; conditions: Homo sapiens; AMO-BZB (bortezomib-resistant), 72 h, mean ± SD
# Protocol: as §3, §4
# [9] = test system: healthy peripheral blood mononuclear cells (PBMCs); experiment: CellTiter-Glo cell viability, healthy PBMCs; type: cell-based; conditions: 72 h
# Protocol: as §3, §4
# [10] = test system: H929 cells; experiment: CellTiter-Glo cell viability, H929; type: cell-based; conditions: Homo sapiens, NCI-H929; H929, 72 h, mean ± SD
# Protocol: as §3, §4
# [11] = test system: 293T cells; experiment: CellTiter-Glo cell viability, 293T; type: cell-based; conditions: 72 h
# [12] = Table S1, ref DOI 10.1039/D2RA01753A
molecule,measurement,setting,value
C=CCC.CC[C@@H]1NC(=O)CN(Cc2ccc(C(=O)NO)cc2)C1=O,IC50,[1],0.00073 µM
O=C(CCCCCNC(=O)c1cn(Cc2ccc(NS(=O)(=O)c3ccc(Br)cc3)cc2)nn1)NO,IC50,[1],0.0084 µM
O=C(NO)c1ccc(CN2CC(=O)N(Cc3ccccc3)[C@H](Cc3ccccc3)C2=O)cc1,IC50,[1],0.00983 µM
O=C(NO)c1ccc(CNc2ncnc3[nH]ccc23)cc1 [ONC(=O)c1ccc(cc1)CNc2ncnc(c23)[nH]cc3],IC50,[1],0.01 µM
O=C(NO)c1ccc(CN2C(=O)[C@@H](Cc3ccccc3)N(Cc3cccnc3)C2=O)cc1,IC50,[1],0.0021 µM
NCc1ccc(NC(=O)N(CCCCO)Cc2ccc(C(=O)NO)cc2)cc1,IC50,"[1]; Table S1, ref PMID 32815366",0.0004 µM
CCN(CC)Cc1ccc(Cn2c(=O)c(OCc3ccc(C(=O)NO)cc3)c(-c3ccccc3)c3ccccc32)cc1,IC50,"[1]; Table S1, ref PMID 33199154",0.0069 µM
CN(C)c1ccc(C(=O)N2CCC(n3cc(C(=O)NCCCCCC(=O)NO)nn3)CC2)cc1,IC50,[1],0.0115 µM
O=C(CCCCCCNC(=O)c1cnc(N(c2ccccc2)c2ccccc2Cl)nc1)NO [ACY-241],selectivity ratio,[2],~10
O=C(NO)c1ccc(CN2c3ccccc3Sc3cccnc32)cc1,IC50,"[1]; Table S1, ref PMID 30645113",0.005 µM
COC(=O)c1ccc2ccccc2c1OCCCCCCCC(=O)NO [ONC(=O)CCCCCCCOc1c(C(=O)OC)ccc(c12)cccc2],IC50,"[1]; Table S1, ref PMID 31223439",0.095 µM
COc1ccc(C(=O)NC2CCN(C(=O)Nc3ccc(/C=C/C(=O)NO)cc3)CC2)cc1,IC50,[1],0.0123 µM
COc1ccc(-c2ncc(C(=O)NCCCCCC(=O)NO)s2)c(OC)c1,IC50,[1],0.031 µM
CCCON(Cc1ccc(C(=O)NO)cc1)C(=O)Nc1cc(C)cc(C)c1,IC50,[1],0.014 µM
O=C(NO)c1ccc(N2C(=O)/C(=C3\Nc4ccccc4\C3=N/O)c3ccccc32)cc1,IC50,"[1]; Table S1, ref PMID 32916298",0.007 µM
O=C(CCCCCNC(=O)c1cn(C2CCN(S(=O)(=O)c3ccc4ccccc4c3)CC2)nn1)NO,IC50,[1],0.0086 µM
Nc1n[nH]c(-c2cc(Cc3ccc(C(=O)NO)cc3)ccc2NC(=O)Cc2ccc3c(c2)OCO3)n1,IC50,[1]; [12],0.0001 µM
O=C(NO)c1ccc(COC(=O)N2CCC3(CC2)CN(Cc2ccccc2)c2ccccc23)cc1,IC50,[1],0.0485 µM
O=C(Cc1cccc2ccccc12)C[C@@H](Cc1ccccc1)C(=O)NO,IC50,[1],0.088 µM
O=C(NO)c1ccc(CN(Cc2nnnn2Cc2ccccc2)C(=O)c2ccccc2C(F)(F)F)cc1,IC50,"[1]; Table S1, ref PMID 32803970",0.03 µM
O=C(CCCCCCC[C@H]1C(=O)[C@H]2CCC(=O)N2Cc2ccccc21)NO,IC50,[1],0.0214 µM
O=C(NO)c1ccc(CN(Cc2cccnc2)S(=O)(=O)c2cc(F)c(F)c(F)c2F)cc1,IC50,"[1]; Table S1, ref PMID 33576627",0.0021 µM
O=C(NO)c1ccc(Cn2c(=O)n(CCc3ccccc3)c(=O)c3ccccc32)cc1,IC50,[1],0.004 µM
ACY-1215,acetylated α-tubulin levels,[3]; 48 h after treatment,marked increase
"O=C(CCC=C1CCN(C(=O)OCc2ccccc2)CC1)NO [Compound 10, benzyl 4-[4-(hydroxyamino)-4-oxobutylidene]piperidine-1-carboxylate]",impact on histone H4 acetylation,[4],moderate
same,IC50,[5],1.69 ± 0.42 µM
same,IC50,[6],30.4 µM
same,IC50,[7],13.2 µM
same,IC50,[8],48.6 µM
same,effect on viability of healthy PBMCs,[9],negligible effects
same,IC50,[10],18 µM
same,acetylated α-tubulin levels,[3]; 72 h after treatment,marked increase
same,effect on viability of non-transformed cells,[11],negligible effects
Nc1nc2c3ccc(Cc4ccc(C(=O)NO)cc4)cc3nc(Cc3ccc4c(c3)OCO4)n2n1,IC50,[1]; [12],0.0005 µM
CC(C)Oc1ccc(-c2csc(NC(=O)c3ncn[nH]3)n2)cc1 [Compound 9],IC50,[5],> 25 µM
